Consider one cell line from the supplement of paper PMC10307832.

Common to all, as to assay: relative viability (nuclei count vs DMSO), 5 days (fraction); higher = more cells survive
Compound in the assay “AT-7519 + Alpelisib”: O=C(NC1CCNCC1)c1n[nH]cc1NC(=O)c1c(Cl)cccc1Cl [AT-7519] + Cc1nc(NC(=O)N2CCC[C@H]2C(N)=O)sc1-c1ccnc(C(C)(C)C(F)(F)F)c1 [Alpelisib] (partner 2 µM)
A digest of the protocol: (§1)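 Each reported value is a median over duplicate plates. It expresses relative viability: treated-well nuclei count divided by vehicle-well nuclei count. Lung cancer cell lines in 1536-well plates were dosed by pin tool a day after seeding, alone with one drug or with a fixed anchor-drug dose plus five library-drug doses (not always all listed) in √10 steps, and nuclei were counted after 5 days.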

Compound in assay [1]: C1=CC2=C(C=C(C(=C2N=C1)O)N=NC3=CC4=C(C=C3)C=C(C=C4)S(=O)(=O)O)S(=O)(=O)O + C[C@@H](Oc1cc(-c2cnn(C3CCNCC3)c2)cnc1N)c1c(Cl)ccc(F)c1Cl [Crizotinib] (partner 1 µM)
Put shortly: as §1

Compound in the assay “AT-7519 + Vorinostat”: O=C(NC1CCNCC1)c1n[nH]cc1NC(=O)c1c(Cl)cccc1Cl [AT-7519] + O=C(CCCCCCC(=O)Nc1ccccc1)NO [Vorinostat] (partner 1 µM)
A digest of the protocol:
as §1

Compound in assay [2]: C1=CC2=C(C=C(C(=C2N=C1)O)N=NC3=CC4=C(C=C3)C=C(C=C4)S(=O)(=O)O)S(=O)(=O)O + Nc1nc2[nH]cc(CCc3ccc(C(=O)N[C@@H](CCC(=O)O)C(=O)O)cc3)c2c(=O)[nH]1 [Pemetrexed] (partner 0.2 µM)
A digest of the protocol: as §1

Regarding UMC-11, the relative viability with AT-7519 + Alpelisib (first compound 0.01 µM) amounted to 0.841; in the assay with AT-7519 + Alpelisib (first compound 0.03162 µM) it was 0.94; with AT-7519 + Alpelisib (first compound 0.3162 µM), 0.587; with AT-7519 + Alpelisib (first compound 1 µM) it was 0.35; in assay [1] (first compound 0.08 µM), 0.818; in assay [1] (first compound 0.253 µM), 0.584. The relative viability amounted to 0.491 in assay [1] (first compound 0.8 µM); 0.693 in assay [1] (first compound 2.53 µM); 0.717 in assay [1] (first compound 8 µM); 0.324 with AT-7519 + Vorinostat (first compound 0.01 µM); 0.379 with AT-7519 + Vorinostat (first compound 0.03162 µM); 0.272 with AT-7519 + Vorinostat (first compound 0.3162 µM). The relative viability in the assay with AT-7519 + Vorinostat (first compound 1 µM) is 0.205; in assay [2] (first compound 0.08 µM), 0.754; in assay [2] (first compound 0.253 µM) it was 0.853; in assay [2] (first compound 0.8 µM), 0.783; in assay [2] (first compound 2.53 µM), 0.717; in assay [2] (first compound 8 µM) it was 0.768.
